Test results from PubChem BioAssay (NCI).
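Values below derive from 48-hour exposures of cells grown in 96-well plates, with endpoints linearly interpolated between the two concentrations bracketing the appropriate inhibition level. At the TGI there is no net growth.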

Assays:
Assay in all cases: NCI anticancer screen, dose series, 48 h
786-0 renal = system: 786-0 renal
A498 renal = system: A498 renal
DU-145 prostate = system: DU-145 prostate
HS 578T breast = system: HS 578T breast
HT29 colon = system: HT29 colon
M14 melanoma = system: M14 melanoma
MDA-MB-435 = system: MDA-MB-435
OVCAR-3 ovarian = system: OVCAR-3 ovarian
PC-3 prostate = system: PC-3 prostate
SF-268 CNS = system: SF-268 CNS
SNB-75 CNS = system: SNB-75 CNS

Row | Compound | TGI (786-0 renal) [µM] | TGI (A498 renal) [µM] | TGI (DU-145 prostate) [µM] | TGI (HS 578T breast) [µM] | TGI (HT29 colon) [µM] | TGI (M14 melanoma) [µM] | TGI (MDA-MB-435) [µM] | TGI (OVCAR-3 ovarian) [µM] | TGI (PC-3 prostate) [µM] | TGI (SF-268 CNS) [µM] | TGI (SNB-75 CNS) [µM]
1 | CC1(C)Oc2ccc(Cl)cc2C12CC2 | 31.3 | 29.9 | 29.5 | 44.8 | 34.7 | 35.5 | 32.6 | 26.7 | 27.9 | 31.6 | 32.3
2 | CC[C@@]1(O)C(=O)OCc2c1cc1n(c2=O)Cc2c-1nc1ccccc1c2/C=N\NC(=O)C(N)CS (stereo partly drawn) | > 100 | 23 | 6.76 | > 100 | > 100 | 10.5 | > 100 | > 100 | > 100 | > 100 | 14
3 | O=[N+]([O-])c1cccc2nc3ccccc3c(NCCC[N+]3([O-])CCCCC3)c12 | 3.34 | 2.47 | 1.9 | 4.02 | 6.37 | 2.95 | 0.44 | 0.852 | 0.649 | 2.22 | 1.4
4 | CC1=CC(=O)c2cccc(NC3=NCCO3)c21 | > 100 | > 100 | > 100 | > 100 | > 100 | > 100 | 86.2 | 90.4 | > 100 | > 100 | > 100
5 | CC(=O)NC1C(OCc2ccccc2)OC(CO)C(O)C1OCC(=O)NC(C)C(=O)NC(CCC(=O)NCCCCCC(=O)Nc1ccc2c(c1)CN1C(=O)c3ccccc3C1=N2)C(N)=O (stereo not drawn) | > 100 | > 100 | > 100 | > 100 | > 100 | > 100 | > 100 | > 100 | > 100 | > 100 | > 100
6 | CC(O)(c1ccccc1)c1nccc2ccccc12 (stereo not drawn) | > 100 | > 100 | > 100 | > 100 | > 100 | > 100 | 39.2 | > 100 | > 100 | > 100 | > 100
7 | C=CCC1NCCC2=C1C(S(=O)(=O)c1ccc(C)cc1)c1ccccc12 (stereo not drawn) | 25.7 | 33.2 | 24.3 | 35.1 | 29.4 | 26.8 | 17.5 | 26 | 22.2 | 34.7 | 18.9
8 | Cc1ccc(S(=O)(=Nc2ccccc2)C(C(C)C)C(C)(C)Cl)cc1 (stereo not drawn) | > 50 | > 50 | > 50 | > 50 | > 50 | > 50 | 38.6 | > 50 | > 50 | > 50 | > 50
9 | O=C(CCc1cc(O)cc(O)c1)NCCc1ccc(O)c(O)c1 | > 100 | > 100 | > 100 | > 100 | > 100 | > 100 | 52.8 | > 100 | > 100 | > 100 | > 100
10 | Cc1ccccc1NC(=S)N=Nc1c(O)[nH]c2ccccc12 | > 100 | > 100 | > 100 | > 100 | > 100 | > 100 | > 100 | > 100 | > 100 | 65.3 | > 100
11 | Cc1ccc(S(=O)(=O)n2cc(-c3cnc(N)c(Br)n3)c3ccccc32)cc1 | > 23.3 | > 24.8 | 6.68 | 2.97 | 9.57 | > 55.1 | 0.588 | > 45.7 | > 31.1 | > 100 | > 22.5
12 | O=c1c2c([nH]c3cc4c(cc13)OCO4)-c1ccccc1CCC2 | > 50 | > 50 | > 50 | > 50 | > 50 | > 50 | > 50 | > 50 | > 50 | > 50 | > 50
13 | CC(=O)O[C@H]1CC[C@@]2(C)C(=CC[C@@H]3[C@@H]2CC[C@]2(C)c4nc(N)c(C#N)cc4C[C@@H]32)C1 | > 96 | > 100 | > 100 | > 95.2 | > 62.2 | > 100 | > 100 | 23.8 | > 100 | > 100 | 23.6
14 | COc1cc2c3c(cc(Cl)nc3c1OC)C(O)(CC(C)=O)C(=O)N2 (stereo not drawn) | 30.9 | 33.2 | > 53.6 | > 100 | > 61.9 | 36.5 | 30.9 | > 100 | > 56.4 | 18 | > 55.9
15 | CN(N)C(=O)NCCCl | > 100 | > 100 | > 100 | > 100 | > 100 | > 100 | > 100 | > 100 | > 100 | > 100 | > 100
16 | O=C1Nc2ccccc2NC1C1OC(c2ccccc2)=CC1=O (stereo not drawn) | > 100 | > 100 | > 100 | > 100 | > 100 | > 100 | > 100 | > 100 | > 100 | > 100 | > 100
17 | COc1ccc(N2C(=O)C3c4[nH]c5ccccc5c4C4CCC(C(C)C)CC4C3C2=O)cc1 (stereo not drawn) | > 100 | > 100 | > 100 | > 100 | > 100 | > 100 | > 100 | > 100 | > 100 | > 100 | > 100
18 | O=C([C@H](O)[C@@H](O)c1ccc(Br)cc1)C12CC3CC(CC(C3)C1)C2 | 45.9 | 32.5 | 51.8 | > 85.9 | > 61.9 | 37.5 | > 56.4 | 32.4 | 24.5 | > 70.6 | 8.2
